Assays:
[1] = test system: streptozotocin-induced diabetic rats; assay: Subcutaneous chronic administration, plasma cholesterol in diabetic rats; type: in vivo, rat; details: subcutaneously infused for 28 days; B6V10 1.25 or 2.5 μmol/kg/day, V10 1.25 μmol/kg/day; streptozotocin (100 mg/kg) diabetic rats
Description: FIG. 3A through 3D show plasma concentrations of total cholesterol (FIG. 3A), nonesterified cholesterol (FIG. 3B), esterified cholesterol (FIG. 3C) and HDL-cholesterol (FIG. 3D) measured in nondiabetic rats (C), streptozotocin-induced diabetic rats (Diab) or diabetic rats treated for 28 days with subcutaneously infused decanadate (V10, 1.25 μmol/kg/day) or hexaquis(benzylammonium) decavanadate (B6V10) at two different doses (1.25 μmol/kg/day or 2.5 μmol/kg/day). * indicates the existance of statistically significant differences from the Diab group at p<0.05.
Subcutaneous administration of hexaquis(benzylammonium) decavanadate was performed to determine the effect on altered plasma concentrations of cholesterol associated to diabetes. Diabetes was induced in rats by intravenous administration of a large dose of streptozotocin (100 mg/kg). Experimentally-induced Diabetes was associated with substantial increases in total plasma cholesterol and nonesterified cholesterol and a reduction in esterified cholesterol concentrations compared to nondiabetic rats (FIG. 3A). HDL-cholesterol concentrations were unaltered by diabetes […]. Under these conditions, subcutaneous treatment with different doses of hexaquis(benzylammonium) decavanadate reduced plasma concentrations of total cholesterol and nonesterified cholesterol and increased esterified cholesterol concentrations so no differences between control and hexaquis(benzylammonium) decavanadate-treated rats were detectable (FIG. 3C).

[2] = test system: streptozotocin-induced diabetic rats; assay: Oral chronic administration, plasma cholesterol in diabetic rats; type: in vivo, rat; details: single daily oral dose for 17 days, 5 μmol/kg/day day 0-7 and 10 μmol/kg/day day 8-17
Description: FIG. 1 is a bar graph of the plasma concentration of cholesterol (Ch) (expressed in mmol/L) measured in nondiabetic rats (C), streptozotocin-induced diabetic rats (D) or diabetic rats treated for 17 days with a single daily oral dose of hexaquis(benzylammonium) decavanadate (5 μmol/kg/day between day 0 and day 7 and 10 μmol/kg/day from day 8 to day 17 of treatment) (BV). Cholesterol concentrations in the D group were statistically significant from the C group at p<0.05.
Oral administration of hexaquis(benzylammonium) decavanadate was tested to determine whether it ameliorated dyslipidemia associated to diabetes. Diabetes was induced in rats by intravenous administration of streptozotocin, causing a substantial increase in plasma cholesterol concentrations compared to nondiabetic rats (FIG. 1).

[3] = test system: streptozotocin-induced diabetic rats; assay: Subcutaneous chronic administration, plasma triglyceride and free fatty acids in diabetic rats; type: in vivo, rat; details: subcutaneously infused for 28 days; B6V10 1.25 or 2.5 μmol/kg/day, V10 1.25 μmol/kg/day; streptozotocin (100 mg/kg) diabetic rats
Description: FIG. 2A though 2D are bar graphs showing plasma concentrations of insulin (FIG. 2A), glucose (FIG. 2B), free fatty acids (FIG. 2C) and triglycerides (FIG. 2D) measured in nondiabetic rats (C), streptozotocin-induced diabetic rats (Diab) or diabetic rats treated for 28 days with subcutaneously infused decanadate (V10, 1.25 μmol/kg/day) or hexaquis(benzylammonium) decavanadate (B6V10) at two different doses (1.25 μmol/kg/day or 2.5 μmol/kg/day). * indicates the existance of statistically significant differences from the Diab group at p<0.05.
Subcutaneous administration of hexaquis(benzylammonium) decavanadate was tested to determine whether it ameliorated the dyslipidemia associated with diabetes. Diabetes was induced in rats by intravenous administration of a large dose of streptozotocin (100 mg/kg), causing a complete disappearance of plasma insulin and very high concentrations of plasma glucose (FIGS. 2A and 2B). Induction of diabetes was also associated with substantial increases in plasma free fatty acid and triglyceride concentrations compared to nondiabetic rats (FIGS. 2C and 2D). Under these conditions, subcutaneous treatment with different doses of hexaquis(benzylammonium) decavanadate normalized plasma concentrations of free fatty acids and triglycerides so that no differences between control and hexaquis(benzylammonium) decavanadate-treated rats were detectable (FIGS. 2C and 2D).

rat adipocytes = details: amine in combination with low concentrations of vanadate; cited from earlier work

Compound | plasma concentration of esterified cholesterol [1] | plasma concentration of nonesterified cholesterol [1] | plasma concentration of total cholesterol [1] | plasma cholesterol levels [2] | plasma concentration of free fatty acids [3] | plasma concentration of triglycerides [3] | glucose transport (rat adipocytes)
hexaquis(benzylammonium) decavanadate | increased | reduced | reduced | substantially reduced | normalized | normalized | 
[O]=[V]([O-])([O-])[O][V]1(=[O])[O][V]2(=[O])[O][V](=[O])([O][V](=[O])([O-])[O-])[O][V](=[O])([O]2)[O][V]2(=[O])[O][V](=[O])([O][V](=[O])([O-])[O-])[O][V](=[O])([O]1)[O]2 (stereo not shown) [decavanadate, reference compound] | not significantly different | not significantly different | significant reduction |  | did not alter | did not alter | 
NCc1ccccc1 [benzylamine] |  |  |  |  |  |  | stimulates glucose transport
NCCc1ccc(O)cc1 [tyramine] |  |  |  |  |  |  | stimulates glucose transport

Reference: US20060165814A1, “Amines, combination of amines and vanadium and amine vanadium salts for the treatment or prevention of dyslipidemia” (Genmedica Therapeutics SL, priority 2004, published 2006)
